Here are results for 1 molecule from PMC12700101 (2025).

What all share (assay): fluorescence titration (intramolecular strand displacement)
Details in all cases: 6 mM MgCl2; apparent; 10 mM Tris-HCl pH 7.5, 25 °C

The subject of assay [1] is 25-7 ATP ISD Cy3–Dab (DNA, aptamer, dabcyl-5-methyl-dC at 40 (3' end)) CACCTGGGGGAGTATTGCGGAGGAAGGTTTTTCCAGGTGC
Assay [2] deals with 25-7 ATP ISD FAM–BHQ-1 (DNA, aptamer) CACCTGGGGGAGTATTGCGGAGGAAGGTTTTTCCAGGTG
The subject of assay [3] is 25-7 ATP ISD FAM–Dab (DNA, aptamer, dabcyl-5-methyl-dC at 40 (3' end)) CACCTGGGGGAGTATTGCGGAGGAAGGTTTTTCCAGGTGC
In assay [4] the test system is 25-7 ATP ISD Cy3–BHQ-1 (DNA, aptamer) CACCTGGGGGAGTATTGCGGAGGAAGGTTTTTCCAGGTG

For the molecule `Nc1ncnc2c1ncn2[C@@H]1O[C@H](COP(=O)(O)OP(=O)(O)OP(=O)(O)O)[C@@H](O)[C@H]1O`, the Kd in assay [1] was 390 ± 83 µM; in assay [2], 1800 ± 1700 µM; in assay [3], 1300 ± 600 µM; in assay [4], 460 ± 65 µM.
